In patent publication US4879303A, “Pharmaceutically acceptable salts” (priority 1986, dated 1989):
Counter-ions that a name gives are not always drawn. Like-named read-outs stand apart in the source and are kept apart here.

What was measured:
[1] = Aqueous solubility of amlodipine salts and pH at saturation; format: physicochemical; conditions: for solubility (in words): qualitative statement
Text: Although amlodipine is effective as the free base, in practice it is best administered in the form of a salt of a pharmaceutically acceptable acid.
1. Generally, it is known in the art that a good aqueous solubility is necessary for good bioavailability. […] In addition, salts which provide solutions having a pH close to that of blood (7.4) are preferred because they are readily biocompatible and can easily be buffered to the required pH range without altering their solubility.

[2] = Chemical stability of salts blended in powder vehicle (tablets or capsules), breakdown products by tlc, ranked
Procedure: In order to screen for chemical stability, each of the salts was blended in a powder vehicle and formed into tablets or capsules. In the case of tablets the vehicle comprised microcrystalline cellulose in 50:50 combination with anhydrous dibasic calcium phosphate. In the case of capsules the vehicles comprised mannitol in 4:1 combination with dried maize starch. These were then stored in sealed vials at 50° and 75° C. for up to three weeks. The drug and any breakdown products were extracted with methanol:chloroform (50:50) and separated on silica tlc plates using a variety of solvent systems.
The results were compared and the salts ranked according to the number and amount of breakdown product produced.

[3] = Hygroscopicity: moisture pick-up on exposure to relative humidity; format: physicochemical; conditions: for moisture pick-up: 75% relative humidity, 37° C., 24 hours; for hydration state after exposure: 95% relative humidity, 30° C., 3 days
Text: 3. In order to provide stable formulations it is desirable to have a non-hygroscopic salt. In the solid state where drug content is high, absorbed films of moisture can act as a vector for hydrolysis and chemical breakdown. It is the hygroscopic nature of a drug or its salt which contributes to the free moisture which is normally responsible for instability.
Therefore the besylate salt can be considered to be non-hygroscopic and thus provides stale formulations while minimising the risk of intrinsic chemical breakdown.

[4] = Stickiness: amlodipine sticking to tablet punch (processability); format: physicochemical; conditions: for processability / anti-adhesion properties (in words): qualitative statement; for Stickiness: runs of 50 to 300 tablets, calcium sulphate dihydrate/microcrystalline cellulose/salt 47.5:47.5:5, average from slope
Text: 4. The final characteristic of an acceptable salt to be considered is the processability, i.e. the compression properties and also the ability not to stick or adhere to the tablet making machinery. For high dose formulations, good compressibility is very important to make elegant tablets. With lower dose tablets the need for good compressibility can be eliminated to a certain extent by the use of suitable diluting excipients called compression aids. Microcrystalline cellulose is a commonly used compression aid. However whatever the dose the adhesion of the drug to the punches of the tablet machine must be avoided. When drug accumulates on the punch surfaces this causes the tablet surface to become pitted and therefore unacceptable. […] In practice it is possible to reduce sticking by wet-massing, careful selection of excipients and the use of high levels of anti-adherents, e.g. magnesium stearate. […] This procedure was then repeated for runs of 100, 150, 200, 250 and 300 tables. After each run the amount of material sticking to the tablet punch was measured after extraction with methanol. The values are plotted and an average value calculated from the slope of the line produced. This same procedure was then repeated for each of the salts of amlodipine.

[5] = format: physicochemical
Text: Consequently a range of pharmaceutically acceptable salts of amlodipine has been made and evaluated using these criteria: […]

[6] = Hydration / composition after isolation of the salt; format: physicochemical; conditions: after manufacture
[7] = listed as Benzene sulphonate (besylate)
[8] = listed as besylate salt of amlodipine
[9] = listed as Toluene sulphonate (tosylate)

Row | SMILES | solubility [1] [µg/mL] | pH at saturation [1] | Stability (rank order) [2] | moisture pick-up [3] | hydration state after exposure [3] | Stickiness relative to maleate [4] [%] | Stickiness [4] | further results
1 | CCOC(=O)C1=C(COCCN)NC(C)=C(C(=O)OC)C1c1ccccc1Cl (stereo not drawn) [Acetate] | 50000 | 6.6 | .dwnarw. |  |  |  |  | 
2 | CCOC(=O)C1=C(COCCN)NC(C)=C(C(=O)OC)C1c1ccccc1Cl (stereo not drawn) [Besylate, amlodipine benzenesulphonate] |  |  | most stable | do not pick up any moisture | remain anhydrous | 59 | 1.17 g Amlodipine cm^-2 tablet^-1 | pH at saturation [1, 7]: 6.6; solubility [1, 7]: 4600 µg/mL; solubility (in words) [1, 8]: good solubility characteristics; stability (overall conclusion) [2]: good stability; hygroscopicity (overall conclusion) [3]: non-hygroscopic; hygroscopicity (overall conclusion) [3, 8]: non-hygroscopicity; processability / anti-adhesion properties (in words) [4]: superior anti-adhesion properties to the maleate; processability / anti-adhesion properties (in words) [4, 8]: good processability
3 | CCOC(=O)C1=C(COCCN)NC(C)=C(C(=O)OC)C1c1ccccc1Cl (stereo not drawn) [Free base, 3-ethyl 5-methyl 2-(2-aminoethoxymethyl)-4-(2-chlorophenyl)-1,4-dihydro-6-methylpyridine-3,5-dicarboxylate] |  |  |  |  |  | 102 | 2.02 g Amlodipine cm^-2 tablet^-1 | 
4 | CCOC(=O)C1=C(COCCN)NC(C)=C(C(=O)OC)C1c1ccccc1Cl (stereo not drawn) [Hydrochloride] | 50000 | 3.5 |  |  |  | 127 | 2.51 g Amlodipine cm^-2 tablet^-1 | 
5 | CCOC(=O)C1=C(COCCN)NC(C)=C(C(=O)OC)C1c1ccccc1Cl (stereo not drawn) [Maleate] | 4500 | 4.8 | .dwnarw. | do not pick up any moisture | remain anhydrous | 100 | 1.98 g Amlodipine cm^-2 tablet^-1 | solubility (in words) [1]: excellent solubility; stability in solution [5]: tends to break-down in solution after a few weeks
6 | CCOC(=O)C1=C(COCCN)NC(C)=C(C(=O)OC)C1c1ccccc1Cl (stereo not drawn) [Mesylate] |  |  | .dwnarw. |  |  | 58 | 1.16 g Amlodipine cm^-2 tablet^-1 | pH at saturation ([1]; listed as Methane sulphonate (mesylate)): 3.1; processability / anti-adhesion properties (in words) [4]: good processability; hydration after isolation as the anhydride [6]: equilibrates to the monohydrate
7 | CCOC(=O)C1=C(COCCN)NC(C)=C(C(=O)OC)C1c1ccccc1Cl (stereo not drawn) [Salicylate] | 1000 |  |  |  |  |  |  | Stability (rank order) ([2]; powder vehicle tablets or capsules, sealed vials, 50° and 75° C., up to three weeks, ranked by number and amount of breakdown product, listed from most stable to unstable): .dwnarw.
8 | CCOC(=O)C1=C(COCCN)NC(C)=C(C(=O)OC)C1c1ccccc1Cl (stereo not drawn) [Succinate] | 4400 | 4.9 | .dwnarw. |  |  | 121 | 2.39 g Amlodipine cm^-2 tablet^-1 | 
9 | CCOC(=O)C1=C(COCCN)NC(C)=C(C(=O)OC)C1c1ccccc1Cl (stereo not drawn) [Tosylate] |  |  | .dwnarw. | do not pick up any moisture | formed the dihydrate salt | 98 | 1.95 g Amlodipine cm^-2 tablet^-1 | pH at saturation [1, 9]: 5.9; solubility [1, 9]: 900 µg/mL
